Experimental data taken from the NIST ThermoML archive (doi:10.1021/je0499317).

Test: excess molar enthalpy (molar enthalpy of mixing); xn = mol fraction of the nth substance listed
Conditions: 298.15 K, 101.33 kPa, Liquid

CCCCCCCCCC#N [1-decanenitrile] + CSCS(C)=O
Conditions | excess molar enthalpy [kcal/mol]
x2 = 0.02311 | 0.0228
x2 = 0.02808 | 0.029
x2 = 0.05736 | 0.0595
x2 = 0.07887 | 0.0808
x2 = 0.1059 | 0.108
x2 = 0.1267 | 0.128
x2 = 0.1515 | 0.149
x2 = 0.186 | 0.176
x2 = 0.2278 | 0.204
x2 = 0.2893 | 0.232
x2 = 0.3382 | 0.251
x2 = 0.3657 | 0.259
x2 = 0.4935 | 0.272
x2 = 0.5572 | 0.269
x2 = 0.6575 | 0.251
x2 = 0.7014 | 0.239
x2 = 0.7482 | 0.22
x2 = 0.7873 | 0.201
x2 = 0.8609 | 0.158
x2 = 0.9468 | 0.0728
x2 = 0.976 | 0.0352
x2 = 0.988 | 0.0193

CCCCCCCCCC#N [1-decanenitrile] + C[S+](C)[O-]
Conditions | excess molar enthalpy [kcal/mol]
x2 = 0.03778 | 0.0338
x2 = 0.04533 | 0.0418
x2 = 0.07244 | 0.0646
x2 = 0.08356 | 0.0746
x2 = 0.1458 | 0.132
x2 = 0.1516 | 0.137
x2 = 0.1578 | 0.141
x2 = 0.2138 | 0.183
x2 = 0.232 | 0.195
x2 = 0.3492 | 0.256
x2 = 0.4404 | 0.285
x2 = 0.52 | 0.299
x2 = 0.5471 | 0.302
x2 = 0.5564 | 0.304
x2 = 0.6253 | 0.301
x2 = 0.7275 | 0.282
x2 = 0.7979 | 0.251
x2 = 0.9212 | 0.139
x2 = 0.962 | 0.0765
x2 = 0.9868 | 0.0295

CCCCCCCCCCC#N [1-decylcyanide] + CSCS(C)=O
Conditions | excess molar enthalpy [kcal/mol]
x2 = 0.02536 | 0.029
x2 = 0.04055 | 0.0463
x2 = 0.04193 | 0.0496
x2 = 0.07582 | 0.0856
x2 = 0.07724 | 0.0867
x2 = 0.1217 | 0.127
x2 = 0.1402 | 0.142
x2 = 0.1596 | 0.159
x2 = 0.1889 | 0.181
x2 = 0.2628 | 0.223
x2 = 0.2767 | 0.231
x2 = 0.3234 | 0.252
x2 = 0.4218 | 0.278
x2 = 0.5052 | 0.286
x2 = 0.77 | 0.237
x2 = 0.8316 | 0.202
x2 = 0.8694 | 0.17
x2 = 0.9043 | 0.138
x2 = 0.9095 | 0.132
x2 = 0.9464 | 0.0864
x2 = 0.9933 | 0.0131

CCCCCCCCCCC#N [1-decylcyanide] + C[S+](C)[O-]
Conditions | excess molar enthalpy [kcal/mol]
x2 = 0.02797 | 0.0287
x2 = 0.05445 | 0.0548
x2 = 0.09234 | 0.0936
x2 = 0.1207 | 0.119
x2 = 0.1811 | 0.175
x2 = 0.1853 | 0.178
x2 = 0.2855 | 0.249
x2 = 0.3924 | 0.296
x2 = 0.5139 | 0.322
x2 = 0.5302 | 0.322
x2 = 0.6423 | 0.322
x2 = 0.7161 | 0.308
x2 = 0.8292 | 0.254
x2 = 0.8917 | 0.195
x2 = 0.9298 | 0.145
x2 = 0.9772 | 0.0547
x2 = 0.98 | 0.0491
x2 = 0.9927 | 0.0191

CCCCCCCCCCCCC#N [dodecanecarbonitrile] + CSCS(C)=O
Conditions | excess molar enthalpy [kcal/mol]
x2 = 0.06513 | 0.0772
x2 = 0.0823 | 0.104
x2 = 0.1316 | 0.15
x2 = 0.2014 | 0.209
x2 = 0.265 | 0.248
x2 = 0.3508 | 0.282
x2 = 0.367 | 0.289
x2 = 0.4233 | 0.301
x2 = 0.5443 | 0.306
x2 = 0.6344 | 0.294
x2 = 0.7341 | 0.264
x2 = 0.7878 | 0.237
x2 = 0.8039 | 0.227
x2 = 0.9082 | 0.138
x2 = 0.9683 | 0.0588
x2 = 0.9847 | 0.0293

CCCCCCCCCCCCC#N [dodecanecarbonitrile] + C[S+](C)[O-]
Conditions | excess molar enthalpy [kcal/mol]
x2 = 0.02177 | 0.0197
x2 = 0.06754 | 0.0683
x2 = 0.09519 | 0.0952
x2 = 0.09988 | 0.104
x2 = 0.1229 | 0.124
x2 = 0.2202 | 0.211
x2 = 0.2575 | 0.237
x2 = 0.2709 | 0.244
x2 = 0.28 | 0.253
x2 = 0.4232 | 0.309
x2 = 0.5464 | 0.322
x2 = 0.6358 | 0.318
x2 = 0.7394 | 0.297
x2 = 0.7753 | 0.283
x2 = 0.8034 | 0.269
x2 = 0.8609 | 0.226
x2 = 0.9001 | 0.181
x2 = 0.9286 | 0.144
x2 = 0.9571 | 0.0958
x2 = 0.9821 | 0.0459

CCCCCCC#N [heptanenitrile] + CSCS(C)=O
Conditions | excess molar enthalpy [kcal/mol]
x2 = 0.02045 | 0.0195
x2 = 0.05221 | 0.048
x2 = 0.08567 | 0.0762
x2 = 0.09776 | 0.0854
x2 = 0.1935 | 0.143
x2 = 0.2208 | 0.157
x2 = 0.2701 | 0.177
x2 = 0.3893 | 0.208
x2 = 0.4914 | 0.216
x2 = 0.579 | 0.212
x2 = 0.7478 | 0.171
x2 = 0.8609 | 0.111
x2 = 0.936 | 0.0591
x2 = 0.9576 | 0.0395
x2 = 0.9714 | 0.0275

CCCCCCC#N [heptanenitrile] + C[S+](C)[O-]
Conditions | excess molar enthalpy [kcal/mol]
x2 = 0.02225 | 0.0157
x2 = 0.07063 | 0.0501
x2 = 0.08316 | 0.059
x2 = 0.119 | 0.0815
x2 = 0.1747 | 0.116
x2 = 0.1851 | 0.123
x2 = 0.2248 | 0.142
x2 = 0.2423 | 0.153
x2 = 0.3049 | 0.179
x2 = 0.3581 | 0.199
x2 = 0.3605 | 0.201
x2 = 0.4935 | 0.23
x2 = 0.5772 | 0.233
x2 = 0.6522 | 0.226
x2 = 0.7056 | 0.214
x2 = 0.8946 | 0.114
x2 = 0.9545 | 0.0549
x2 = 0.9792 | 0.0267

CCCCCC#N [hexanenitrile] + CSCS(C)=O
Conditions | excess molar enthalpy [kcal/mol]
x2 = 0.01678 | 0.013
x2 = 0.02979 | 0.0247
x2 = 0.05841 | 0.0472
x2 = 0.07605 | 0.0589
x2 = 0.1435 | 0.103
x2 = 0.1944 | 0.13
x2 = 0.2184 | 0.141
x2 = 0.2608 | 0.158
x2 = 0.3826 | 0.188
x2 = 0.4382 | 0.193
x2 = 0.4785 | 0.194
x2 = 0.5751 | 0.187
x2 = 0.7307 | 0.15
x2 = 0.8373 | 0.107
x2 = 0.9177 | 0.0609
x2 = 0.9392 | 0.0468
x2 = 0.9784 | 0.0178
